# Source: patent US5698674A, “Triheterocyclic peptides capable of binding the minor and major grooves of DNA” (The Regents of the University of California, priority 1994, dated 1997)
# Several values for one entry are separate records, joined by “and”; a condition that tells them apart may be missing. Identical values can stand only once. Entries after “also recorded” stand apart in the source; their conditions may differ. Like-named read-outs stand apart in the source and are kept apart here.
# How the values were obtained:
# [1] = target: d(GGCGCAAATTTGGCGG)(SEQ ID NO:1)/d(CCGCCAAATTTGCGCC)(SEQ ID NO:2); test: Hoechst 33258 (Ht) fluorescence competition, equilibrium association constants with hexadecamer duplex; type: binding; conditions: for log KL1: association constant of first ligand, H2O, 10 mM phosphate buffer, pH 7.0, 10 mM NaCl, 35° C, for Ht = log KHt1, Dm, 2, 5a-c recalculated from previously collected data; for log KL1 / log KL2 / log KHtL: mean ± SD; for log KL1 / log KL2: Ht; for log KL2: association constant of second ligand, for Ht = log KHt2, Dm, 2, 5a-c recalculated; for log KHtL: binding of L to DNA:Ht; for log KL1 KL2: complex association constant
# Procedure: Equilibrium constants for the association of 6a and 6b with oligomeric DNA were assessed by the complexing of tren-microgonotropen-a and -b to the hexadecamer d(GGCGCAAATTTGGCGG)(SEQ ID NO:1)/d(CCGCCAAATTTGCGCC)(SEQ ID NO:2) in aqueous solutions at 35° C. (2.8 mL solutions containing 0.01M phosphate buffer, pH 7.0, and 0.01M NaCl).
# These reactions were followed by the competition of the dye Hoechst 33258 (Ht) with 6a and 6b for the A3 T3 minor groove binding site (an extension of Ht alone binding to dsDNA). The concentrations of 6a and 6b were confirmed by ^1 H NMR peak integration of resonances with those of an equivalent concentration of mesitoate.
# As shown previously (Browne, K. A.; He, G.-X.; Bruice, T. C. J. Am. Chem. Soc. 1993, 115, 7072), monitoring the increase in fluorescence intensity as the association of Ht with the hexadecamer displaces prebound nonfluorescent ligands is an excellent method for determining equilibrium binding constants. FIG. 17 relates the equilibrium constants for the complexing of one and two Ht species to the hexadecamer with one and two L (where L=6a or 6b) binding to the hexadecamer, plus equilibrium constants for the simultaneous binding of one Ht and one L at the same site. [formula]
# Eq 1, derived from FIG. 17, relates each of the equilibrium binding constants, the total fluorescence (Σθ), and [L] in terms of fluorescence (F) and [Ht]. The rationale behind FIG. 17 and the subsequent derivation of eq 1 have been described in considerable detail (Browne, et al., 1993, supra). The values of log KHt1 =7.6 and log KHt2 =9.1 used were determined from a reevaluation of data previously collected (Browne, et al., 1993, supra) and are very close to the previously determined values. A concentration independent static quenching term, Q', is included in eq 1 to account for the lessened fluorescent emission of the DNA:Ht:L complex compared to the DNA:Ht and DNA:Ht2 complexes.
# The equilibrium association constants calculated as best fits to the experimental data points for 6a and 6b with eq 1 are presented in Table I. Plots of F vs. [Ht] using these constants at 8.0×10^-9, 1.0×10^-8, and 1.2×10^-8 M ligand and 5.0×10^-9 M in hexadecamer duplex are shown in FIGS. 3a and 3b.
# Reagents and methods for DNA binding studies were exactly the same as used previously (He, et al., 1993, supra; Browne, et al., 1993, supra) unless stated otherwise. The values for the equilibrium constants for 2, 5a,b,c, Dm, and Ht were recalculated from previously collected data (Browne, et al., 1993, supra) using the curve fitting program SigmaPlot® 4.1.4 (Jandel Scientific, San Rafael, Calif.). The equilibrium constants for 6a and 6b were calculated with SigmaPlot® 4.1.4 using the reevaluated constants for Ht (KHt1 and KHt2).
# [2] = tested on: calf thymus topoisomerase I; test: Topoisomerase I inhibition assays (relaxation of supercoiled pBR322); type: biochemical; conditions: for inhibition of topoI relaxation of supercoiled pBR322: agent preincubated with DNA 1 hr before 18 hr topoI reaction, 37° C; for inhibition of topoI after partial relaxation: added after 0.5 hr topoI incubation, then 18 hr
# Procedure: Inhibition of topoI's action on supercoiled pBR322 by 6b was compared to inhibition by Dm and 5b (dien-microgonotropen-b). In the first set of experiments, each agent was allowed to incubate with the DNA for 1 hr prior to the 18 hr topoI reaction period.
# In closely related experiments, the mode of inhibition of topoI was examined. This was accomplished by allowing the supercoiled DNA to be partially relaxed for 0.5 hr with topoI before any other DNA ligands were added (FIG. 6).
# The buffer for all of the 50 μL reactions was composed of 50 mM Tris-HCl, pH 7.5, 50 mM KCl, 10 mM MgCl2, and 1 mM EDTA that was filtered through a sterile 0.45μ Gelman Sciences Acrodisc. Every reaction mixture contained 1 μg of supercoiled pBR322 plasmid (Pharmacia) and, except for the supercoiled control, every reaction mixture included 10 units of calf thymus topoisomerase I (Bethesda Research Laboratories).
# All reactions were extracted twice with water-saturated phenol, extracted once with chloroform, and precipitated with ammonium acetate and ethanol.
# The different helical forms of pBR322 created by the relaxation assays were electrophoretically separated through a 4% NuSieve 3:1 (hydroxyethylated) agarose gel (vertical, 0.8 mm) in 40 mM Tris-acetate, pH 8.0 and 1 mM EDTA for 8 hr at 2 V/cm.
# [3] = tested on: 167 bp EcoRI/RsaI pBR322 restriction fragment; test: DNase I footprint analysis; type: binding
# [4] = tested on: .phi.X-174-RF DNA HaeIII restriction digest fragments; test: Electrophoretic mobility shift assay; type: binding; conditions: for RL vs. agent concentration: 1078 bp fragment; for order of effectiveness in increasing the apparent length of DNA fragments: RL values; for change in electrophoretic behavior: 150 μM
# [5] = tested on: d(CGCA3 T3 GCG (SEQ ID NO:3))2; test: Dynamics of ligand exchange in the 1:1 complex (ROESY NMR); type: binding; conditions: 10° C
# Procedure: The data matrix was zero filled to 2K and appodized with a gaussian function to give a line broadening of 1 Hz in both frequency domains. The ROESY experiment was recorded at 10° C. using the Kessler pulse sequence (Kessler, H.; Griesinger, C.; Kerssebaum, R.; Wagner, E.: Ernst, R. J Am. Chem. Soc. 1987, 109, 607) with a mixing time of 50 ms and a locking field strength of 2.5 kHz.
# The linearity of the NOE build-up with tm was checked for most of the dsDNA proton interactions between 50 and 180 ms and a 5-20 fold increase was found in the NOE volume integrals from the 50 to 180 ms mixing times. The exchange rate (kex) was calculated from eq 3 as follows:
# kex =ln((1+R)/2.tau.m (1-R)), s^-1 eq(3) […]
# The free energy of activation, ΔG*, for this exchange process at a certain temperature, T (K), was calculated from eq 4 (Gunther, H. "NMR Spectroscopy: An Introduction", John Wiley, New York, 1980, p. 241).
# Exchanges between two equivalent binding sites have been proposed for dsDNA complexes of distamycin (Pelton et al., 1990, supra) and netropsin (Patel et al., 1985, supra). If we consider that the exchange is governed by a "flip-flop" mechanism (Pelton et al., 1990, supra) (FIG. 18), not excluding the possible existence of a fast sliding motion of 6b in the minor groove, the rate of exchange can be calculated (Experimental Section).
# [6] = tested on: d(GGCGCAAATTTGGCGG)(SEQ ID NO:1)/d(CCGCCAAATTTGCGCC)(SEQ ID NO:2); conditions: hexadecamer; Browne et al., 1993; cited from earlier work
# [7] = tested on: mice; conditions: cited from earlier work
# [8] = tested on: d(CGCA3 T3 GCG (SEQ ID NO:3))2; conditions: 30° C; Pelton et al., 1990; cited from earlier work
# [9] = 25 and 50 μM (0.25 and 0.5 ligand/bp DNA)
Compound,log KL1 [1],"log KL2 ([1]; pH 7.0, 35° C)","log KHtL ([1]; pH 7.0, 35° C)","log KL1 KL2 ([1]; pH 7.0, 35° C)",inhibition of DNase I cleavage at the four A+T-rich binding sites ([3]; 5 μM (0.05 ligand/bp DNA)),"inhibition of DNase I cleavage at the four A+T-rich binding sites [3, 9]",RL vs. agent concentration [4],order of effectiveness in increasing the apparent length of DNA fragments [4] [a^~ 6b>>distamycin>tren],change in electrophoretic behavior [4],further results
CC(=O)Nc1cc(C(=O)Nc2cc(C(=O)Nc3cc(C(=O)NCCCN(C)C)n(C)c3)n(CCCCNCCN(CCN)CCN)c2)n(C)c1 [Compound 6b],8.9 ± 0.08,9.0 ± 0.2,10.3 ± 0.1,17.9,did not produce detectable inhibition of DNase I cleavage,specific inhibition of cleavage was observed at three of the four sites,quite concentration dependent and sigmoidal in response,6,–,"KL1 (association constant) ([1]; first ligand, hexadecamer A3T3 site, pH 7.0, 35° C): 7.9e+08 M⁻¹ and 8e+08 M⁻¹; complex equilibrium association constants (KL1 KL2) ([1]; hexadecamer, Table I): 8×10^17 M^-2; quenching of Ht fluorescence ([1]; in DNA:Ht:L complex, from Q'): 36%; KL2 ([1]; second ligand, hexadecamer, pH 7.0, 35° C): 1e+09 M⁻¹; inhibition of topoI relaxation of supercoiled pBR322 ([2]; 10 μM): the predominant isomer is the fully supercoiled species; inhibition of topoI after partial relaxation ([2]; 30 μM): inhibited topoI even after pBR322 was considerably unwound; inhibition of topoI relaxation of supercoiled pBR322 ([2]; 30 μM): complete inhibition of topoI; electrophoretic mobility of DNA restriction fragments ([4]; increasing concentration 20, 40, 60, 80 μM): the mobility of DNA restriction fragments decreases; activation energy (ΔG*) of exchange [5]: ~ 17 kcal/mol"
"Cn1cc(NC(=O)c2cc(NC(=O)c3cc(NC=O)cn3C)cn2C)cc1C(=O)NCCC(=N)N [Dm, Distamycin]",7.6 ± 0.09,8.4 ± 0.08,8.8 ± 0.09,16.0,did not produce detectable inhibition of DNase I cleavage,specific inhibition of cleavage was observed at three of the four sites,does not demonstrate very marked changes even at the highest concentrations examined,6,smaller changes at 150 μM (0.66 ligand/bp) than 6a or 6b at 40 μM,"inhibition of topoI after partial relaxation ([2]; 150 μM): no effect; inhibition of topoI relaxation of supercoiled pBR322 ([2]; 150 μM): only partially inhibited; also recorded: partial inhibition; enhancements in or increased rates of DNase I cleavage at specific sequences ([3]; highest concentrations, 5'- and 3'-labeled fragments): showed enhancements similar to those found previously; equilibrium constant for 1:1 complex formation [6]: 4e+07 M⁻¹; LD50 ([7]; i.p.): 500 mg/kg; LD50 ([7]; i.v.): 75 mg/kg; rate constant for exchange [8]: 0.2 s⁻¹"
"CN1CCN(c2ccc3[nH]c(-c4ccc5[nH]c(-c6ccc(O)cc6)nc5c4)nc3c2)CC1 [Ht, Hoechst 33258]",7.6 and 7.6 ± 0.1,9.1 and 9.1 ± 0.2,–,–,–,–,–,–,–,–
"NCCN(CCN)CCN [Tren, tris(2-aminoethyl)amine]",–,–,–,–,–,–,–,6,no apparent change in electrophoretic behavior,–
